Experimental data reported in US20160113911A1, “METHODS AND COMPOSITIONS FOR THE TREATMENT OF CANCER” (THE GENERAL HOSPITAL CORPORATION, priority 2013, published 2016).

Assays:
HEK 293T cells [1] = experiment: MTT proliferation and viability assay; type: cell-based, human; details: shRNA 4A.10 or 4A.06, 48h
Protocol: For tissue culture and generation of stable cell lines see (Black et al., 2010). Rapamycin (LC Laboratories) and AZD8055 (Selleckchem) were used at indicated concentrations. […] JIB-04 (Xcessbio) was used at a final concentration of 250 nM. For the translation assays, DMEM depleted of Methionine and Cysteine (Life Technologies 21013-024) was used.
MTT assays were performed following supplier's instructions from the Cell Proliferation Kit I™ (MTT) from Roche. Briefly, 1×10^4 cells were seeded per well of a 96 well plate and grown for 24h before treatment. Forty-eight hours later, cells were assayed.

RPE cells = experiment: Apoptosis by annexin V staining; type: cell-based, human; details: RPE CTRL and KDM4A overexpressing cells
p53 = p53 stabilization and p53 target gene induction after DNA damage; type: cell-based, human; details: RPE GFP-CTRL and GFP-KDM4A cells; 1 uM for 16 hrs
Protocol: Western blots were performed as in (Black et al., 2010). Antibodies used were: KDM4A (Neuro mAB, 75-189), β-actin (Millipore), GFP (Neuro mAB, 73-131), RFP (Abcam, ab62341), p53 (Santa Cruz, sc-126), MCM2 (Cell Signaling, #3619S), MCM3 (Cell Signaling, #4012S), MCM7 (Cell Signaling, #3735S), Halo (Promega), Actinin (Santa Cruz, sc-17829), HA 12CA5 (Roche), FLAG M2 (Sigma), DNA Pol α (Abcam, ab31777).

HEK 293T cells [2] = experiment: Monitored cell proliferation assay (xCELLigence growth curves, doubling time); type: cell-based, human
Protocol: Seventy two hours post transfection 1×10^4 HEK 293T cells were seeded per well of a 96 well plate, and then treated after 24h. Cell proliferation was monitored with an xCELLigence system (Roche) (Vistejnova et al., 2009).

H3K36me3 = experiment: H3K36 demethylase activity of KDM4A variants in transfected cells (immunofluorescence); type: cell-based; details: U2OS cells transfected with GFP-KDM4A

Molecule: COc1ccc(-c2ccc3c(N4CCOC[C@@H]4C)nc(N4CCOC[C@@H]4C)nc3n2)cc1CO [AZD8055]
- drug sensitivity of KDM4A shRNA cells vs control vector (MTT) (HEK 293T cells [1]): more sensitive

Molecule: COc1cccc2c1C(=O)c1c(O)c3c(c(O)c1C2=O)C[C@@](O)(C(=O)CO)C[C@@H]3O[C@H]1C[C@H](N)[C@H](O)[C@H](C)O1 [doxorubicin]
- apoptosis (percent Annexin V positive cells) (RPE cells): could induce apoptosis in both CTRL and KDM4A cells
- p53 stabilization and p53 target gene activation (p53): resulted in stabilization of p53 and activation of p53 target genes

B1: KDM4A SNP-A482: KDM4A germline variant E482A (protein)
chain: MASESETLNPSARIMTFYPTMEEFRNFSRYIAYIESQGAHRAGLAKVVPPKEWKPRASYDDIDDLVIPAPIQQLVTGQSGLFTQYNIQKKAMTVREFRKIANSDKYCTPRYSEFEELERKYWKNLTFNPPIYGADVNGTLYEKHVDEWNIGRLRTILDLVEKESGITIEGVNTPYLYFGMWKTSFAWHTEDMDLYSINYLHFGEPKSWYSVPPEHGKRLERLAKGFFPGSAQSCEAFLRHKMTLISPLMLKKYGIPFDKVTQEAGEFMITFPYGYHAGFNHGFNCAESTNFATRRWIEYGKQAVLCSCRKDMVKISMDVFVRKFQPERYKLWKAGKDNTVIDHTLPTPEAAEFLKESELPPRAGNEEECPEEDMEGVEDGEEGDLKTSLAKHRIGTKRHRVCLEIPQEVSQSELFPKEDLSSEQYEMTECPAALAPVRPTHSSVRQVEDGLTFPDYSDSTEVKFEELKNVKLEEEDEEEEQAAAALDLSVNPASVGGRLVFSGSKKKSSSSLGSGSSRDSISSDSETSEPLSCRAQGQTGVLTVHSYAKGDGRVTVGEPCTRKKGSAARSFSERELAEVADEYMFSLEENKKSKGRRQPLSKLPRHHPLVLQECVSDDETSEQLTPEEEAEETEAWAKPLSQLWQNRPPNFEAEKEFNETMAQQAPHCAVCMIFQTYHQVEFGGFNQNCGNASDLAPQKQRTKPLIPEMCFTSTGCSTDINLSTPYLEEDGTSILVSCKKCSVRVHASCYGVPPAKASEDWMCSRCSANALEEDCCLCSLRGGALQRANDDRWVHVSCAVAILEARFVNIAERSPVDVSKIPLPRFKLKCIFCKKRRKRTAGCCVQCSHGRCPTAFHVSCAQAAGVMMQPDDWPFVVFITCFRHKIPNLERAKGALQSITAGQKVISKHKNGRFYQCEVVRLTTETFYEVNFDDGSFSDNLYPEDIVSQDCLQFGPPAEGEVVQVRWTDGQVYGAKFVASHPIQMYQVEFEDGSQLVVKRDDVYTLDEELPKRVKSRLSVASDMRFNEIFTEKEVKQEKKRQRVINSRYREDYIEPALYRAIME
modifications: left off: large carriers; small tags and cut ends
notes: KDM4A germline variant E482A
- rescue of increased sensitivity to AZD8055 due to KDM4A depletion (doubling time 5h-35h) (HEK 293T cells [2]; shRNA KDM4A plus non targetable GFP-KDM4A constructs): does not
- rescue of increased sensitivity to Rapamycin of KDM4A depleted cells (doubling time 5h-35h) (HEK 293T cells [2]; shRNA KDM4A plus shRNA-resistant GFP-KDM4A constructs): does not
- H3K36me3 and H3K9me3 catalytic activities (H3K36me3): did not appear to be altered
